± gives the expanded uncertainty stated by the source.
Test: xn = mol fraction of the nth substance listed
Conditions: 100 kPa, Liquid; for viscosity: Concentric cylinders viscometry; for mass density: Vibrating tube method

CCCCn1cc[n+](C)c1.O=S(=O)([O-])C(F)(F)F [1-butyl-3-methylimidazolium trifluoromethanesulfonate] + CCCC[n+]1ccn(C)c1.O=S(=O)([N-]S(=O)(=O)C(F)(F)F)C(F)(F)F
viscosity (283.15 K, x2 = 0): 225.61 ± 12 mPa·s | viscosity (283.15 K, x2 = 0.25): 154.7 ± 8.1 mPa·s | viscosity (283.15 K, x2 = 0.5): 145 ± 7.5 mPa·s | viscosity (283.15 K, x2 = 0.746): 145.79 ± 7.6 mPa·s | mass density (283.15 K, x2 = 0): 1308.4 ± 0.7 kg/m3 | mass density (283.15 K, x2 = 0.25): 1352.7 ± 0.7 kg/m3 | mass density (283.15 K, x2 = 0.5): 1389 ± 0.7 kg/m3 | mass density (283.15 K, x2 = 0.746): 1421.8 ± 0.7 kg/m3 | viscosity (288.15 K, x2 = 0): 168.05 ± 8.8 mPa·s | viscosity (288.15 K, x2 = 0.25): 117.06 ± 6 mPa·s | viscosity (288.15 K, x2 = 0.5): 109.34 ± 5.6 mPa·s | viscosity (288.15 K, x2 = 0.746): 111.5 ± 5.7 mPa·s | mass density (288.15 K, x2 = 0): 1304.3 ± 0.7 kg/m3 | mass density (288.15 K, x2 = 0.25): 1348.3 ± 0.7 kg/m3 | mass density (288.15 K, x2 = 0.5): 1384.4 ± 0.7 kg/m3 | mass density (288.15 K, x2 = 0.746): 1417.1 ± 0.7 kg/m3 | viscosity (293.15 K, x2 = 0): 128.51 ± 6.6 mPa·s | viscosity (293.15 K, x2 = 0.25): 90.69 ± 4.6 mPa·s | viscosity (293.15 K, x2 = 0.5): 84.53 ± 4.3 mPa·s | viscosity (293.15 K, x2 = 0.746): 87.3 ± 4.4 mPa·s | mass density (293.15 K, x2 = 0): 1300.3 ± 0.7 kg/m3 | mass density (293.15 K, x2 = 0.25): 1344 ± 0.7 kg/m3 | mass density (293.15 K, x2 = 0.5): 1379.9 ± 0.7 kg/m3 | mass density (293.15 K, x2 = 0.746): 1412.4 ± 0.7 kg/m3 | viscosity (298.15 K, x2 = 0): 99.14 ± 5.1 mPa·s | viscosity (298.15 K, x2 = 0.25): 71.42 ± 3.6 mPa·s | viscosity (298.15 K, x2 = 0.5): 66.62 ± 3.4 mPa·s | viscosity (298.15 K, x2 = 0.746): 68.68 ± 3.5 mPa·s | mass density (298.15 K, x2 = 0): 1296.3 ± 0.7 kg/m3 | mass density (298.15 K, x2 = 0.25): 1339.8 ± 0.7 kg/m3 | mass density (298.15 K, x2 = 0.5): 1375.5 ± 0.7 kg/m3 | mass density (298.15 K, x2 = 0.746): 1407.8 ± 0.7 kg/m3 | viscosity (303.15 K, x2 = 0): 78.26 ± 4 mPa·s | viscosity (303.15 K, x2 = 0.25): 57.29 ± 2.9 mPa·s | viscosity (303.15 K, x2 = 0.5): 53.39 ± 2.7 mPa·s | viscosity (303.15 K, x2 = 0.746): 55.86 ± 2.8 mPa·s | mass density (303.15 K, x2 = 0): 1292.3 ± 0.7 kg/m3 | mass density (303.15 K, x2 = 0.25): 1335.5 ± 0.7 kg/m3 | mass density (303.15 K, x2 = 0.5): 1371 ± 0.7 kg/m3 | mass density (303.15 K, x2 = 0.746): 1403.2 ± 0.7 kg/m3 | viscosity (308.15 K, x2 = 0): 62.76 ± 3.2 mPa·s | viscosity (308.15 K, x2 = 0.25): 46.66 ± 2.3 mPa·s | viscosity (308.15 K, x2 = 0.5): 43.56 ± 2.2 mPa·s | viscosity (308.15 K, x2 = 0.746): 45.8 ± 2.3 mPa·s | mass density (308.15 K, x2 = 0): 1288.4 ± 0.7 kg/m3 | mass density (308.15 K, x2 = 0.25): 1331.3 ± 0.7 kg/m3 | mass density (308.15 K, x2 = 0.5): 1366.6 ± 0.7 kg/m3 | mass density (308.15 K, x2 = 0.746): 1398.6 ± 0.7 kg/m3 | viscosity (313.15 K, x2 = 0): 51.33 ± 2.6 mPa·s | viscosity (313.15 K, x2 = 0.25): 38.52 ± 1.9 mPa·s | viscosity (313.15 K, x2 = 0.5): 35.96 ± 1.8 mPa·s | viscosity (313.15 K, x2 = 0.746): 38.1 ± 1.9 mPa·s | mass density (313.15 K, x2 = 0): 1284.5 ± 0.7 kg/m3 | mass density (313.15 K, x2 = 0.25): 1327 ± 0.7 kg/m3 | mass density (313.15 K, x2 = 0.5): 1362.2 ± 0.7 kg/m3 | mass density (313.15 K, x2 = 0.746): 1394 ± 0.7 kg/m3 | viscosity (318.15 K, x2 = 0): 42.1 ± 2.1 mPa·s | viscosity (318.15 K, x2 = 0.25): 32.19 ± 1.6 mPa·s | viscosity (318.15 K, x2 = 0.5): 30.15 ± 1.5 mPa·s | viscosity (318.15 K, x2 = 0.746): 32.2 ± 1.6 mPa·s | mass density (318.15 K, x2 = 0): 1280.6 ± 0.7 kg/m3 | mass density (318.15 K, x2 = 0.25): 1322.8 ± 0.7 kg/m3 | mass density (318.15 K, x2 = 0.5): 1357.8 ± 0.7 kg/m3 | mass density (318.15 K, x2 = 0.746): 1389.4 ± 0.7 kg/m3 | viscosity (323.15 K, x2 = 0): 35.13 ± 1.8 mPa·s | viscosity (323.15 K, x2 = 0.25): 27.21 ± 1.4 mPa·s | viscosity (323.15 K, x2 = 0.5): 25.43 ± 1.3 mPa·s | viscosity (323.15 K, x2 = 0.746): 27.44 ± 1.4 mPa·s | mass density (323.15 K, x2 = 0): 1276.7 ± 0.7 kg/m3 | mass density (323.15 K, x2 = 0.25): 1318.7 ± 0.7 kg/m3 | mass density (323.15 K, x2 = 0.5): 1353.5 ± 0.7 kg/m3 | mass density (323.15 K, x2 = 0.746): 1384.9 ± 0.7 kg/m3 | viscosity (328.15 K, x2 = 0): 29.63 ± 1.5 mPa·s | viscosity (328.15 K, x2 = 0.25): 23.24 ± 1.2 mPa·s | viscosity (328.15 K, x2 = 0.5): 21.66 ± 1.1 mPa·s | viscosity (328.15 K, x2 = 0.746): 23.47 ± 1.2 mPa·s | mass density (328.15 K, x2 = 0): 1272.8 ± 0.7 kg/m3 | mass density (328.15 K, x2 = 0.25): 1314.5 ± 0.7 kg/m3 | mass density (328.15 K, x2 = 0.5): 1349.2 ± 0.7 kg/m3 | mass density (328.15 K, x2 = 0.746): 1380.4 ± 0.7 kg/m3 | viscosity (333.15 K, x2 = 0): 25.5 ± 1.3 mPa·s | viscosity (333.15 K, x2 = 0.25): 20.06 ± 1 mPa·s | viscosity (333.15 K, x2 = 0.5): 18.55 ± 0.93 mPa·s | viscosity (333.15 K, x2 = 0.746): 20.27 ± 1 mPa·s | mass density (333.15 K, x2 = 0): 1268.9 ± 0.7 kg/m3 | mass density (333.15 K, x2 = 0.25): 1310.4 ± 0.7 kg/m3 | mass density (333.15 K, x2 = 0.5): 1344.9 ± 0.7 kg/m3 | mass density (333.15 K, x2 = 0.746): 1376 ± 0.7 kg/m3 | viscosity (338.15 K, x2 = 0): 21.72 ± 1.1 mPa·s | viscosity (338.15 K, x2 = 0.25): 17.4 ± 0.88 mPa·s | viscosity (338.15 K, x2 = 0.5): 16.08 ± 0.81 mPa·s | viscosity (338.15 K, x2 = 0.746): 17.6 ± 0.89 mPa·s | mass density (338.15 K, x2 = 0): 1265.1 ± 0.7 kg/m3 | mass density (338.15 K, x2 = 0.25): 1306.2 ± 0.7 kg/m3 | mass density (338.15 K, x2 = 0.5): 1340.6 ± 0.7 kg/m3 | mass density (338.15 K, x2 = 0.746): 1371.5 ± 0.7 kg/m3 | viscosity (343.15 K, x2 = 0): 18.84 ± 0.95 mPa·s | viscosity (343.15 K, x2 = 0.25): 15.23 ± 0.77 mPa·s | viscosity (343.15 K, x2 = 0.5): 14.13 ± 0.71 mPa·s | viscosity (343.15 K, x2 = 0.746): 15.46 ± 0.78 mPa·s | mass density (343.15 K, x2 = 0): 1261.3 ± 0.6 kg/m3 | mass density (343.15 K, x2 = 0.25): 1302.2 ± 0.7 kg/m3 | mass density (343.15 K, x2 = 0.5): 1336.3 ± 0.7 kg/m3 | mass density (343.15 K, x2 = 0.746): 1367.1 ± 0.7 kg/m3 | viscosity (348.15 K, x2 = 0): 16.47 ± 0.83 mPa·s | viscosity (348.15 K, x2 = 0.25): 13.43 ± 0.68 mPa·s | viscosity (348.15 K, x2 = 0.5): 12.54 ± 0.63 mPa·s | viscosity (348.15 K, x2 = 0.746): 13.66 ± 0.69 mPa·s | mass density (348.15 K, x2 = 0): 1257.5 ± 0.6 kg/m3 | mass density (348.15 K, x2 = 0.25): 1298.1 ± 0.7 kg/m3 | mass density (348.15 K, x2 = 0.5): 1332 ± 0.7 kg/m3 | mass density (348.15 K, x2 = 0.746): 1362.6 ± 0.7 kg/m3 | viscosity (353.15 K, x2 = 0): 14.83 ± 0.75 mPa·s | viscosity (353.15 K, x2 = 0.25): 11.94 ± 0.6 mPa·s | viscosity (353.15 K, x2 = 0.5): 11.18 ± 0.56 mPa·s | viscosity (353.15 K, x2 = 0.746): 12.23 ± 0.62 mPa·s | mass density (353.15 K, x2 = 0): 1253.7 ± 0.6 kg/m3 | mass density (353.15 K, x2 = 0.25): 1294 ± 0.7 kg/m3 | mass density (353.15 K, x2 = 0.5): 1327.8 ± 0.7 kg/m3 | mass density (353.15 K, x2 = 0.746): 1358.2 ± 0.7 kg/m3 | viscosity (358.15 K, x2 = 0): 12.86 ± 0.65 mPa·s | viscosity (358.15 K, x2 = 0.25): 10.63 ± 0.54 mPa·s | viscosity (358.15 K, x2 = 0.5): 9.981 ± 0.5 mPa·s | viscosity (358.15 K, x2 = 0.746): 10.93 ± 0.55 mPa·s | mass density (358.15 K, x2 = 0): 1249.9 ± 0.6 kg/m3 | mass density (358.15 K, x2 = 0.25): 1290 ± 0.7 kg/m3 | mass density (358.15 K, x2 = 0.5): 1323.5 ± 0.7 kg/m3 | mass density (358.15 K, x2 = 0.746): 1353.8 ± 0.7 kg/m3 | viscosity (363.15 K, x2 = 0): 11.48 ± 0.58 mPa·s | viscosity (363.15 K, x2 = 0.25): 9.541 ± 0.48 mPa·s | viscosity (363.15 K, x2 = 0.5): 8.973 ± 0.45 mPa·s | viscosity (363.15 K, x2 = 0.746): 9.909 ± 0.5 mPa·s | mass density (363.15 K, x2 = 0): 1246.2 ± 0.6 kg/m3 | mass density (363.15 K, x2 = 0.25): 1286.1 ± 0.7 kg/m3 | mass density (363.15 K, x2 = 0.5): 1319.3 ± 0.7 kg/m3 | mass density (363.15 K, x2 = 0.746): 1349.5 ± 0.7 kg/m3
